This is an account of results in patent US5849587A, “Method of inhibiting viral replication in eukaryotic cells and of inducing apoptosis of virally-infected cells” (Cornell Research Foundation, Inc., priority 1995, dated 1998).

The test system of series [1] is HIV-1 infected ACH-2 cells. Put plainly: Cell membrane integrity (trypan blue exclusion, retention of labeled eIF-5A), HIV-1 infected cells. It counts as cell-based, human. The conditions noted are these: during 18-21 h incubation and 2-4 hours after withdrawal, FIGS. 12A and B. The method, then:
FIGS. 12A and B show the loss of cell membrane integrity suffered by HIV-1 producing ACH-2 cells and their uninfected parent cell line CEM during incubation with and after withdrawal of mimosine and HK-1. The black bar indicates the duration of inhibitor exposure, the open bar the duration of inhibitor withdrawal. Cell membrane integrity was determined by the ability of the cells to exclude the low-molecular weight dye trypan blue (FIGS. 12A and B) and to retain the spermidine-derived radioactive label of a single, obligatory intracellular protein species, eIF-5A and its deoxyhypusyl precursor (FIG. 12A).
ACH-2 cells were incubated with hypusine inhibitors (mimosine, HK-1) and induced with PMA as outlined in Example II A, except that the duration of exposure to inhibitor was extended to 18-21 hours and that cells were labeled as detailed in Example I B. Half of the cells were then harvested and processed for detection of apoptosis, while the other half was washed free of inhibitors and re-incubated in fresh medium for 2-4 hours, followed by harvesting and processing for detection of […] apoptosis. Using the same protocol, cultures of the parent CEM cell line were incubated in parallel. […]

For series [2], the system named is HIV-1 infected ACH-2 cells. Put plainly: Flow cytometry of genomic DNA 3'-ends (apoptosis), HIV-1 infected cells. It counts as cell-based, human. Particulars: for fragmentation of genomic DNA / number of DNA 3'-ends, ACH-2: FIG. 13. The method, then: FIGS. 13A-F show the flowcytometrically determined distribution of the number of fluorescently labeled 3'-ends in the genomic DNA of HIV-1 producing ACH-2 cells ("ACH-2") and their uninfected parent cell line CEM ("CEM"), both receiving no treatment ("NT") or treatment for 18 hours with either 200 μM mimosine ("MIM") or 200 μM HK-1 ("HK1"). […] This is the hallmark of irreversible auto-destruction of a cell's genetic library.
FIGS. 14A-H show the flowcytometrically determined distribution of the number of fluorescently labeled 3'-ends in the genomic DNA of HIV-1 producing ACH-2 cells ("ACH-2") and of their uninfected parent cell line CEM ("CEM"), both receiving no treatment ("NT") or treatment for 18 hours with 200 μM mimosine ("MIM"), followed by inhibitor withdrawal and reincubation in fresh medium for 2 hours.
ACH-2 cells were incubated with hypusine inhibitors (mimosine, HK-1) and induced with PMA as outlined in Example II A, except that the duration of exposure to inhibitor was extended to 18-21 hours and that cells were labeled as detailed in Example I B. Half of the cells were then harvested and processed for detection of apoptosis, while the other half was washed free of inhibitors and re-incubated in fresh medium for 2-4 hours, followed by harvesting and processing for detection of […] apoptosis. Using the same protocol, cultures of the parent CEM cell line were incubated in parallel. For assessment of apoptosis, cell viability was measured by exclusion of the dye trypan blue, by retention of the ^3 H-spermidine-derived intracellular radioactivity incorporated into the obligatory intracellular protein eIF-5A, and by direct fluorescence detection of the intemucleosomal degradation of genomic DNA. Such irreversible genome degradation signals the activation of pre-programmed suicide mechanisms within any cell, which is the hallmark of apoptosis, and inescapably results in cell death [Compton, Cancer Metast. 11, 105-119 (1992), which is hereby incorporated by reference]. For the latter method, a commercially available kit was used (Oncor, Gaithersburg, Md.). Flow cytometric analysis of apoptotic cells was performed in accord with standard procedures.

Series [3] deals with T1, deoxyhypusyl hydroxylase (DOHH) in human T-cell line ACH-2 (Homo sapiens, UniProt Q9BU89).
T1 construct: endogenous in cells; host or cells: ACH-2 (human T-cell line, subclone of the A3.01 variant of CEM)
T1 sequence (Q9BU89 1-302): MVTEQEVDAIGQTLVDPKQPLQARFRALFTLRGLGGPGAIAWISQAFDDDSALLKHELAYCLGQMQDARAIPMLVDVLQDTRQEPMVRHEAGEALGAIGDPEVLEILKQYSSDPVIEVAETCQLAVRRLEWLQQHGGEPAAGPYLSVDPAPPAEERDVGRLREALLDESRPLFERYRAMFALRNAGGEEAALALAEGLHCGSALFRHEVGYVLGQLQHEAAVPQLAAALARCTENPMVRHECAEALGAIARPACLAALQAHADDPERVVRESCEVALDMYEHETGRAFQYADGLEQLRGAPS
Description: Deoxyhypusine-to-hypusine conversion by DOHH in ACH-2 cells. Format: cell-based. Particulars: for activity at 200 µM: ACH-2, 22 h, 22 hours, ACH-2 cells, FIG. 5, remaining conversion; for resumption of conversion after inhibitor removal: within 2 hours of inhibitor removal, after 200 μM, ACH-2. The method, then:
DOHH Assay. The intracellular conversion of peptide-bound deoxyhypusine to peptidyl hypusine was determined after preincubation of human T lymphocyte-derived cells (i.e. ACH-2) [Clouse et al., J. Immunol. 142, 431-438 (1989), which is hereby incorporated by reference] with the hypusine inhibitors mimosine and HK-1 for 60 minutes, followed by labeling for 21 hours with ^3 H-spermidine (3.75 μCi/ml) in wells containing 3×10^6 cells suspended in 8 ml of serum-supplemented and antibiotic-containing RPMI 1640 medium. Cells were then split into two groups, one of them being harvested immediately to assess degree of DOHH inhibition, and the other harvested after transfer of the cells into inhibitor-free medium for 2 hours to measure resumption of DOHH activity. Harvesting consisted in precipitation of washed cells with 10% TCA containing 1 mM each of putrescine, spermidine, and spermine. Cellular proteins from each sample were then hydrolyzed in 6N HCl at 110° C. for 16 hours. The hydrolysate was analyzed for labeled amino acids on an amino acid analyzer by published methods [Park et al., J. Biol. Chem., 257, 7217-7222 (1982), which is hereby incorporated by reference]. The retention times of hypusine and deoxyhypusine were determined from standards. Similar studies were performed in human B-cells and human smooth muscle cells.

Series [4] relates to HIV-1 producing ACH-2 cells. Description: Electron microscopy of PMA-induced ACH-2 cells. Format: cell-based, human. On the procedure:
FIGS. 11A and B show, representative ultrastructural findings observed in PMA-induced/untreated (FIG. 11A) and PMA-induced/mimosine-treated (FIG. 11B) ACH-2 cells immediately at the end of the 18-hour incubation period. […] Note, however, that such changes occur rapidly after withdrawal of the inhibitors (compare to time course detailed in FIGS. 12A and B and FIGS. 14A-H). [Magnification: 9100×].
3. Ultrastructural investigation of antiviral effect. ACH-2 cells were incubated with hypusine inhibitors (mimosine, HK-1) and induced with PMA as outlined in Example II A. Harvesting, fixation of cells, and electron microscopy were performed according to established techniques [Michael et al., J. Virol 65, 1291-1303 (1991), which is hereby incorporated by reference].

Entries after “also recorded” stand apart in the source; their conditions may differ.

For `Cc1c(O)c(=O)ccn1C` [HK-1, 1,2-dimethyl-3-hydroxypyrid-4-one], in series [1], the “cell membrane integrity, HIV-1 producing ACH-2” value was “the most marked, uniform and rapid decline of membrane integrity developed 2-4 hours after inhibitor withdrawal”. Besides, in series [2] (200 μM, 18 hours), the “fragmentation of genomic DNA / number of DNA 3'-ends, ACH-2” value is given as “triggered fragmentation of the genomic DNA; also recorded: increase of the number of 3'-ends in their DNA”. Also, in series [3], the activity at 200 µM is at most 10%; the “resumption of conversion after inhibitor removal” value is “almost tripled; also recorded: recovers readily and triples within the first 2 hours of inhibitor removal”.

As for `N[C@@H](Cn1ccc(=O)c(O)c1)C(=O)O` [L-Mimosine], in series [1], the “cell membrane integrity, HIV-1 producing ACH-2” value is “the most marked, uniform and rapid decline of membrane integrity developed 2-4 hours after inhibitor withdrawal”. Further, in series [4] (PMA-induced ACH-2, FIG. 11B), the “cells with early apoptotic nuclear changes” value is recorded as “about 20%”. In series [4] (PMA-induced ACH-2, end of 18-hour incubation, FIG. 11B), the “number of viral particles in extracellular space” value was “marked reduction in the number of viral particles; also recorded: prominent reduction in the number of infectious particles in the extracellular space”. Moreover, the “ultrastructural appearance of treated cells” value in series [4] (PMA-induced ACH-2, end of incubation, FIG. 11B) is on record as “normal ultrastructural appearance of the treated ACH-2 cells; also recorded: still lacks overt morphological signs of cell damage”. For the same molecule, the “DNA fragmentation after withdrawal, ACH-2” value in series [2] (200 μM 18 hours, then 2 hours after withdrawal, FIG. 14) is “this population did not decrease, but rather became the predominant one; also recorded: Within the 2 hours of release, this shift increased markedly”. For the same molecule, the “fragmentation of genomic DNA / number of DNA 3'-ends, ACH-2” value in series [2] (200 μM, 18 hours) was “triggered fragmentation of the genomic DNA; also recorded: increase of the number of 3'-ends in their DNA”. Also, the “second population (higher amount of 3'-ends) position, ACH-2” value in series [2] (200 μM, 18 hours, FIG. 14) is listed as about 210 channel. The “average fluorescence peak position, ACH-2” value in series [2] (200 μM, 18 hours, FIG. 14, control around channel 100) was determined as 140 channel. Also, in series [3], the activity at 200 µM was at most 10%; the “resumption of conversion after inhibitor removal” value is “almost tripled; also recorded: recovers readily and triples within the first 2 hours of inhibitor removal”.
